Data: patent publication US8362000B2, “Azetidinyl diamides as monoacylglycerol lipase inhibitors” (Janssen Pharmaceutica NV, priority 2009, dated 2013)

molecular target: T1, mutant MGL (Homo sapiens, UniProt Q99685, L169S/L176S); test: MGL ThermoFluor assay - mutant; assay type: binding; settings: ThermoFluor concentration-response, read-out: MGL mutant ThermoFluor Kd
T1 sequence (Q99685 1-303 L169S/L176S): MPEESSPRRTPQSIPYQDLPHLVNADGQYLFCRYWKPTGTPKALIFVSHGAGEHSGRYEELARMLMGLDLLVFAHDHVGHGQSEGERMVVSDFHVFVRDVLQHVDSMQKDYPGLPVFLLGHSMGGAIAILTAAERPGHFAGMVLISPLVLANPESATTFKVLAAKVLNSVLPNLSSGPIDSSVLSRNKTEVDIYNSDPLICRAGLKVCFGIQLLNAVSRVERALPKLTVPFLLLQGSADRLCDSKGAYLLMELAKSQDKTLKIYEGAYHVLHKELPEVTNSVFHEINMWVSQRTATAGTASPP

| Structure (SMILES) | Kd [µM] |
| --- | --- |
| O=C(c1ccccc1)N1CCN(C2CN(C(=O)c3ccc(=O)n(Cc4ccccc4)c3)C2)CC1 [Cpd 565, 1-Benzyl-5-({3-[4-(phenylcarbonyl)piperazin-1-yl]azetidin-1-yl}carbonyl)pyridin-2(1H)-one] | > 31.2 |
| CN(C)c1ccc(C(=O)N2CC(N3CCN(C(=O)c4ccccc4)CC3)C2)cc1 [Cpd 31, N,N-Dimethyl-4-({3-[4-(phenylcarbonyl)piperazin-1-yl]azetidin-1-yl}carbonyl)aniline] | 1.43 |
| O=C(c1ccc2c(ccn2C(=O)c2ccc3c(c2)CCN3)c1)N1CC(N2CCN(C(=O)c3nccs3)CC2)C1 [Cpd 988, 1-(2,3-Dihydro-1H-indol-5-ylcarbonyl)-5-({3-[4-(1,3-thiazol-2-ylcarbonyl)piperazin-1-yl]azetidin-1-yl}carbonyl)-1H-indole] | 0.04 |
| O=C(c1ccccc1)N1CCN(C2CN(C(=O)c3ccc(OCc4ccccc4)cc3)C2)CC1 [Cpd 35, 1-(1-{[4-(Benzyloxy)phenyl]carbonyl}azetidin-3-yl)-4-(phenylcarbonyl)piperazine] | 0.0833 |
| CC1CN(C2CN(C(=O)c3cccc(-c4ccccc4)c3)C2)CCN1C(=O)c1nccs1 (stereo not drawn) [Cpd 116] | 2 |
| O=C(c1ccccc1)N1CCN(C2CN(C(=O)c3sc4cc(F)ccc4c3C3CC3)C2)CC1 [Cpd 528] | 0.049 |
| O=C(c1ccccc1)N1CCN(C2CN(C(=O)c3ccc(Oc4ccccn4)c(F)c3)C2)CC1 [Cpd 537] | 3.33 |
| O=C(c1ccccc1)N1CCN(C2CN(C(=O)c3cccc(-n4cccc4)c3)C2)CC1 [Cpd 627, 1-(Phenylcarbonyl)-4-(1-{[3-(1H-pyrrol-1-yl)phenyl]carbonyl}azetidin-3-yl)piperazine] | 10 |
| O=C(c1cncc(-c2ccccc2)c1)N1CC(N2CCN(C(=O)c3cscn3)CC2)C1 [Cpd 169] | 30.3 |
| Cc1ccc(-c2ccc(C(=O)N3CC(N4CCN(C(=O)c5cscn5)CC4)C3)[nH]2)cc1 [Cpd 298] | 2.91 |
| Cc1nc(COc2ccc(Cl)cc2)sc1C(=O)N1CC(N2CCN(C(=O)c3cscn3)CC2)C1 [Cpd 966] | 0.334 |
| O=C(c1ccccc1)N1CCN(C2CN(C(=O)c3ccc(CNc4ccc(F)c(F)c4F)cc3)C2)CC1 [Cpd 557] | 0.114 |
| Cc1ccc(Sc2ncccc2C(=O)N2CC(N3CCN(C(=O)c4cscn4)CC3)C2)cc1 [Cpd 479] | 6.67 |
| O=C(c1ccc(-c2ccccc2)cc1)N1CCN(C2CN(C(=O)c3ncccn3)C2)CC1 [Cpd 1400, 2-({3-[4-(Biphenyl-4-ylcarbonyl)piperazin-1-yl]azetidin-1-yl}carbonyl)pyrimidine] | 4.07 |
| O=C(c1ccccc1)C1CCC(C(=O)N2CC(N3CCN(C(=O)c4ccccc4)CC3)C2)CC1 (stereo not drawn) [Cpd 108, Phenyl[4-({3-[4-(phenylcarbonyl)piperazin-1-yl]azetidin-1-yl}carbonyl)cyclohexyl]methanone] | 1.25 |
| O=C(c1ccc(CSc2cccc(Cl)c2)cc1)N1CC(N2CCN(C(=O)C(F)(F)F)CC2)C1 [Cpd 955] | 1.11 |
| O=C(c1ccccc1)N1CCN(C2CN(C(=O)c3nc(-c4ccccc4)oc3C(F)(F)F)C2)CC1 [Cpd 625, 1-(Phenylcarbonyl)-4-(1-{[2-phenyl-5-(trifluoromethyl)-1,3-oxazol-4-yl]carbonyl}azetidin-3-yl)piperazine] | > 31.2 |
| O=C(c1ccc(-c2ccccc2)cc1)N1CC(N2CCN(C(=O)c3cncs3)CC2)C1 [Cpd 8, 1-[1-(Biphenyl-4-ylcarbonyl)azetidin-3-yl]-4-(1,3-thiazol-5-ylcarbonyl)piperazine] | 0.111 |
| O=C(c1ccc(OCc2ccc(Cl)s2)cc1)N1CC(N2CCN(C(=O)C(F)(F)F)CC2)C1 [Cpd 961] | 0.576 |
| N#Cc1ccc(-c2ccc(C(=O)N3CC(N4CCN(C(=O)c5cscn5)CC4)C3)cc2)cc1 [Cpd 171] | 0.708 |
| O=C(c1ccccc1)N1CCN(C2CN(C(=O)c3ccc(N4CCCC4)cc3)C2)CC1 [Cpd 29, 1-(Phenylcarbonyl)-4-{1-[(4-pyrrolidin-1-ylphenyl)carbonyl]azetidin-3-yl}piperazine] | 0.1 |
| O=C(c1ccccc1)N1CCN(C2CN(C(=O)c3ccc(-c4ccccc4)cc3)C2)C(CO)C1 (stereo not drawn) [Cpd 458, {1-[1-(Biphenyl-4-ylcarbonyl)azetidin-3-yl]-4-(phenylcarbonyl)piperazin-2-yl}methanol] | 6.67 |
| O=C(c1ccc(O[C@H]2CCN(C(=O)N3CCCC3)C2)c(I)c1)N1CC(N2CCN(C(=O)c3nccs3)CC2)C1 [Cpd 452] | 0.2 |
| O=C(/C=C/c1ccccc1Br)N1CC(N2CCN(C(=O)c3ccccc3)CC2)C1 [Cpd 104, 1-{1-[(2E)-3-(2-Bromophenyl)prop-2-enoyl]azetidin-3-yl}-4-(phenylcarbonyl)piperazine] | 5 |
| O=C(c1ccc(SCc2cccc(Cl)c2Cl)cc1)N1CC(N2CCN(C(=O)c3nccs3)CC2)C1 [Cpd 413, 1-[1-({4-[(2,3-Dichlorobenzyl)sulfanyl]phenyl}carbonyl)azetidin-3-yl]-4-(1,3-thiazol-2-ylcarbonyl)piperazine] | 0.002 |

same assay, conditions: ThermoFluor thermal stability binding assay, read-out: MGL mutant ThermoFluor Kd

| Structure (SMILES) | Kd [µM] |
| --- | --- |
| CC(=O)N1c2ccc(-c3cccc(C(F)(F)F)c3)cc2CCC1C(=O)N1CC(N2CCN(C(=O)c3nccs3)CC2)C1 (stereo not drawn) [Cpd 917] | 5 |
| CC(=O)N1c2ccc(Br)cc2CCC1C(=O)N1CC(N2CCN(C(=O)c3nccs3)CC2)C1 (stereo not drawn) [Cpd 376, 1-Acetyl-6-bromo-2-({3-[4-(1,3-thiazol-2-ylcarbonyl)piperazin-1-yl]azetidin-1-yl}carbonyl)-1,2,3,4-tetrahydroquinoline] | 7.14 |
| O=C(c1ccc(OCc2cccc(Cl)c2Cl)c(F)c1)N1CC(N2CCN(C(=O)c3nccs3)CC2)C1 [Cpd 405, 1-[1-({4-[(2,3-Dichlorobenzyl)oxy]-3-fluorophenyl}carbon-yl)azetidin-3-yl]-4-(1,3-thiazol-2-ylcarbonyl)piperazine] | 0.002 |
| O=C(c1cscn1)N1CCN(C2CN(C(=O)c3cc(-c4ccccc4)oc3C(F)(F)F)C2)CC1 [Cpd 1397] | 0.5 |
| CC(=O)N1c2ccc(Br)cc2CCC1C(=O)N1CC(N2CCN(C(=O)c3cscn3)CC2)C1 (stereo not drawn) [Cpd 377] | > 76.7 |
| O=C(C=Cc1ccc2ccccc2c1)N1CC(N2CCN(C(=O)c3nccs3)CC2)C1 [Cpd 297] | 0.333 |
| O=C(c1ccccc1)N1CCN(C2CN(C(=O)c3ccc(OCc4cccnc4)c(Cl)c3)C2)CC1 [Cpd 409] | 2.03 |
| Cc1nc(-c2cccc(C(F)(F)F)c2)sc1C(=O)N1CC(N2CCN(C(=O)c3nccs3)CC2)C1 [Cpd 1407, 1-[1-({4-Methyl-2-[3-(trifluoromethyl)phenyl]-1,3-thiazol-5-yl}carbonyl)azetidin-3-yl]-4-(1,3-thiazol-2-ylcarbonyl)piperazine] | 0.005 |
| COc1cc(C(=O)N2CC(N3CCN(C(=O)c4ccccc4)CC3)C2)ccc1-c1cccc(C(F)(F)F)c1 [Cpd 249, 1-(1-{[2-Methoxy-3′-(trifluoromethyl)biphenyl-4-yl]carbonyl}azetidin-3-yl)-4-(phenylcarbonyl)piperazine] | 0.01 |
| CS(=O)(=O)N1CCCc2cc(C(=O)N3CC(N4CCN(C(=O)c5ccccc5)CC4)C3)ccc21 [Cpd 363, 1-(Methylsulfonyl)-6-({3-[4-(phenylcarbonyl)piperazin-1-yl]azetidin-1-yl}carbonyl)-1,2,3,4-tetrahydroquinoline] | 6.76 |
| O=C(c1cscn1)N1CCN(C2CN(C(=O)c3cccc4nc(-c5cccc(Cl)c5)[nH]c34)C2)CC1 [Cpd 1389] | 0.422 |
| O=C(c1nccs1)N1CCN(C2CN(C(=O)c3cccc4nc(Cc5ccccc5F)[nH]c34)C2)CC1 [Cpd 989] | 1.25 |
| CS(=O)(=O)c1cccc(-c2ccc(C(=O)N3CC(N4CCN(C(=O)c5cscn5)CC4)C3)cc2)c1 [Cpd 236, 1-(1-{[3′-(Methylsulfonyl)biphenyl-4-yl]carbonyl}azetidin-3-yl)-4-(1,3-thiazol-4-ylcarbonyl)piperazine] | 0.2 |
| CC(=O)N1c2ccc(Br)cc2CCC1C(=O)N1CC(N2CCN(C(=O)c3ccccc3)CC2)C1 (stereo not drawn) [Cpd 378] | > 76.7 |
| O=C(c1cscn1)N1CCN(C2CN(C(=O)c3nc(-c4ccccc4)oc3C(F)(F)F)C2)CC1 [Cpd 1403] | 1.69 |
| O=C(c1nccs1)N1CCN(C2CN(C(=O)c3nc(-c4ccccc4)oc3C(F)(F)F)C2)CC1 [Cpd 1385] | 0.206 |
| O=C(c1ccc(-c2ccccc2)cc1)N1CC(N2CCN(C(=O)c3ncccn3)CC2)C1 [Cpd 1478] | > 31.2 |
| CC(=O)Nc1cccc(-c2ccc(C(=O)N3CC(N4CCN(C(=O)c5ccccc5)CC4)C3)cc2)c1 [Cpd 233, N-[4′-({3-[4-(Phenylcarbonyl)piperazin-1-yl]azetidin-1-yl}carbonyl)biphenyl-3-yl]acetamide] | 1.32 |
| Cc1cc(-c2cccc(C(F)(F)F)c2)ccc1C(=O)N1CC(N2CCN(C(=O)c3ccccc3)CC2)C1 [Cpd 238, 1-(1-{[3-Methyl-3′-(trifluoromethyl)biphenyl-4-yl]carbonyl}azetidin-3-yl)-4-(phenylcarbonyl)piperazine] | 0.0333 |
| O=C(c1ccccc1)N1CCN(C2CN(C(=O)c3ccc(OCc4cncc(Cl)c4)cc3)C2)CC1 [Cpd 554] | 1.99 |
| O=C(c1ccc(OCc2ccc(Cl)s2)cc1)N1CC(N2CCN(C(=O)c3nccs3)CC2)C1 [Cpd 962] | 0.005 |
| CC(=O)Nc1cccc(-c2ccc(C(=O)N3CC(N4CCN(C(=O)c5cscn5)CC4)C3)cc2)c1 [Cpd 235, N-[4′-({3-[4-(1,3-Thiazol-4-ylcarbonyl)piperazin-1-yl]azetidin-1-yl}carbonyl)biphenyl-3-yl]acetamide] | 0.588 |

same assay, conditions: ThermoFluor, compound concentration measured by qNMR, read-out: MGL mutant ThermoFluor qKd (μM) (using qNMR conc.)

| Structure (SMILES) | Kd [µM] |
| --- | --- |
| N#Cc1ccccc1-n1ccc2cc(C(=O)N3CC(N4CCN(C(=O)c5ccccc5)CC4)C3)ccc21 [Cpd 588, 2-[5-({3-[4-(Phenylcarbonyl)piperazin-1-yl]azetidin-1-yl}carbonyl)-1H-indol-1-yl]benzonitrile] | 0.512 |
